Data taken from US7041465B1 (priority 1999, dated 2006).
Like-named read-outs stand apart in the source and are kept apart here.

Tests used:
FimH = FimH (Escherichia coli, UniProt P08191); conditions: peptides coated at 2 nmol/50 μl, FimC protein at 0.1 nmol/50 μl; increasing concentrations of FimH (5–25 pmol/well); FIG. 12
Experimental: (§1) The peptides were diluted in phosphate buffered saline (PBS) (120 mM NaCl, 2.7 mM KCl, 10 mM, […], pH 7.4) to 2 nmol/50 μl. FimC protein was diluted to 0.1 nmol/50 μl and coated overnight onto microtiter wells with 50 μl/well at 4° C. The ELISA assay was carried out as described in Kuehn et al., 1993 and Hung et al., 1996. Briefly, the wells were washed three times with PBS and blocked with 3% Bovine Serum Albumin (BSA) in PBS for two hours at 25° C. Then the wells were washed three times with PBS. The FimC-FimH co-complex was incubated in 3 M urea to separate the two proteins. Pure FimH in 3 M urea was collected from the flow through of a Source 15S column (Pharmacia). See Barnhart et al., PNAS USA 97: 7709–7714 (2000). The wells were incubated with 50 μl of FimH in 3% BSA-PBS diluted to 5–25 pmol/well FimH for 45 minutes at 25° C. The wells were washed 3 times with PBS followed by incubation with a 1:1000 dilution of mouse anti-FimH antibodies in 3% BSA-PBS for 45 minutes at 25° C. The wells were washed 3 times with PBS followed by incubation with a 1:1000 dilution of goat antiserum to mouse IgG (Sigma) conjugated to alkaline phosphatase diluted in 3% BSA-PBS for 45 minutes at 25° C. The wells were washed 3 times with PBS and washed 3 times with developing buffer (10 mM diethanolamine, 0.4 mM MgCl2). The ELISA was developed by adding 50 μl of substrate (50 μl of filtered 1 mg/ml p-nitrophenyl phosphate; Sigma) in developing buffer. The reaction was incubated for 1 hour at 25° C. in the dark and the absorbance at 405 nm was read.
(§2) The competition assays were carried out similarly. FimC was coated onto microtiter wells at 0.1 nmol/well. FimH at 5 pmol/well in 3% BSA-PBS was added to the FimC coated wells in the presence or the absence of the FimC or FimG peptide at 2 nmol/well or the indicated peptide concentration. Further, increasing concentrations of FimH were incubated with constant concentrations of the FimC or FimG peptides or the FimC protein immobilized on microtiter wells. […] FimH was added to the FimC coated wells in the presence or absence of peptides to FimC or FimG.

FimH binding to FimC = FimH binding to FimC (Escherichia coli, UniProt P08191); conditions: FimC coated at 0.1 nmol/well, FimH 5 pmol/well; for Inhibition of FimH binding to FimC immobilized on microtiter wells: peptide at 2 nmol/well (tested concentration), FIG. 14; for FimH binding to immobilized FimC in the presence of increasing concentrations of peptide: FIG. 13
Chain of FimH binding to FimC (P08191 22-300): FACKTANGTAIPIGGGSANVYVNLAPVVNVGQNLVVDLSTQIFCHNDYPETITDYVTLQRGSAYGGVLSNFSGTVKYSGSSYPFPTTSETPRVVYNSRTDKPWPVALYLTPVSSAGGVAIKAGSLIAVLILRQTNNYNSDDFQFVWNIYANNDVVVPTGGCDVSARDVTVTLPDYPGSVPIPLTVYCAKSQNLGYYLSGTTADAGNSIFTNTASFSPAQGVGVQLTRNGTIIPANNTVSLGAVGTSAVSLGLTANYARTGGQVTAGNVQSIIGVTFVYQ
Experimental: as §1, §2

Chain of FimH (P08191 22-300): as above

DVTITVNGK [FimG peptide]
FimH binding to the immobilized peptide or FimC protein (ELISA, anti-FimH antibodies, absorbance at 405 nm) (FimH): bound well
Inhibition of FimH binding to FimC immobilized on microtiter wells (FimH binding to FimC): did not inhibit

NTLQLAIISR [FimC peptide]
FimH binding to the immobilized peptide or FimC protein (ELISA, anti-FimH antibodies, absorbance at 405 nm) (FimH): bound well
FimH binding to immobilized FimC in the presence of increasing concentrations of peptide (FimH binding to FimC): further decreased the ability of FimH to bind to FimC
FimH binding to immobilized FimC in the presence of increasing concentrations of peptide (FimH binding to FimC; listed as FimC polypeptide): inhibit FimH binding to FimC
Inhibition of FimH binding to FimC immobilized on microtiter wells (FimH binding to FimC): inhibited the ability of FimH to bind to FimC
